Assay results from patent US20080119462A1, “METHOD FOR TREATING VASCULAR HYPERPERMEABLE DISEASE” (Sucampo AG, priority 2003, published 2008).

Columns and labels:
retinal VAP-1 = target: T1, retinal VAP-1 (Rattus norvegicus, UniProt O08590); assay: Retinal VAP-1 activity in STZ diabetic rats after eye-drop instillation; assay type: in vivo
T1 construct: from tissue; host or cells: retina of STZ diabetic rats
T1 sequence (O08590 1-763): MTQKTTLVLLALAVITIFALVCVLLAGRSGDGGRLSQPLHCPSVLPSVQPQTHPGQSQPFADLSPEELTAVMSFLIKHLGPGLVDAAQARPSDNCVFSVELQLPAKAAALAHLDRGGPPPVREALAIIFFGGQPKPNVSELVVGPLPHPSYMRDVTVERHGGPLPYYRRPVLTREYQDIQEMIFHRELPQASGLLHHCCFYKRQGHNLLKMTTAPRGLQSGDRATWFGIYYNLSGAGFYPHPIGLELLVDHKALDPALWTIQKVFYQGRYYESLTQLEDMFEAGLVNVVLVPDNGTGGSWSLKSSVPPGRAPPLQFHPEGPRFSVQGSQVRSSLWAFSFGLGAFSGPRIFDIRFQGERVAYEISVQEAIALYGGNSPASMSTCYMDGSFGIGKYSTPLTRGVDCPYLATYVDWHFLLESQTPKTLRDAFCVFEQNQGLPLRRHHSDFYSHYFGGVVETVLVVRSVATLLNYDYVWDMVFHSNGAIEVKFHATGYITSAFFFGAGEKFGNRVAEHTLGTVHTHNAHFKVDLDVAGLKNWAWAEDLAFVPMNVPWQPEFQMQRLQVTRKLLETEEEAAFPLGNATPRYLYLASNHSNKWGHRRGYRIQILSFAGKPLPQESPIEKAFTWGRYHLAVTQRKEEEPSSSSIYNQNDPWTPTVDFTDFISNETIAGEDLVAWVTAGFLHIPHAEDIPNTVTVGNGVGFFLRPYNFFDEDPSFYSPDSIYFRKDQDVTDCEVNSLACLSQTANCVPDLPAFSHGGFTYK
Description: A 0.1% solution of Compound A was instilled into the eyes of STZ diabetic rats (10 μl/eye) prepared in the same manner as in Example 2. To the normal group and STZ control group, a vehicle was instilled. At 6 hours from the instillation, the retina was removed from the animals and the retinal VAP-1 activity was determined.

Rat plasma SSAO = target: T2, Rat plasma SSAO (Rattus norvegicus, UniProt O08590); assay: Radiochemical-enzyme assay of VAP-1 enzyme (SSAO) activity with 14C-benzylamine, rat plasma; assay type: biochemical
T2 construct: The enzyme suspension prepared from blood plasma was pre-incubated with Compound A; from tissue; host or cells: rat blood plasma
T2 sequence (O08590 27-763 limits assumed): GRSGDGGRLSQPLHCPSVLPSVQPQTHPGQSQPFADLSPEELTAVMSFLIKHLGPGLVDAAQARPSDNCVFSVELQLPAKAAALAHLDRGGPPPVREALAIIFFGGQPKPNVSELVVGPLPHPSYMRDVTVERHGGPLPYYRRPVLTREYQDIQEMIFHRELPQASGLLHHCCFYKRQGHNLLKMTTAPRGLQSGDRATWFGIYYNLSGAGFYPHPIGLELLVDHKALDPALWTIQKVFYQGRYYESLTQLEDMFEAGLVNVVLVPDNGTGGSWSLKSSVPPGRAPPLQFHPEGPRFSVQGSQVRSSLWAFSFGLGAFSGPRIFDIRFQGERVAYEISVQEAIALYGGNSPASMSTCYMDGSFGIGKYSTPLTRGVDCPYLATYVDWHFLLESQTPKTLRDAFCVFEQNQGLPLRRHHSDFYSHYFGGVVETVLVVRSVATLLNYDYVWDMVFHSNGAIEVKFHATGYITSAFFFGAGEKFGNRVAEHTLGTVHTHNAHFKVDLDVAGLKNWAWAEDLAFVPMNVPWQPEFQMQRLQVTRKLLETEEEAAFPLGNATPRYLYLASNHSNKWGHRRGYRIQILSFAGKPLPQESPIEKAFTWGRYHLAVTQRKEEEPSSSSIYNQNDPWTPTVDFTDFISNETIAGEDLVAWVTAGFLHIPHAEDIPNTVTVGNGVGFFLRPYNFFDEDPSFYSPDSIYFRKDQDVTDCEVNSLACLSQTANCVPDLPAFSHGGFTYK
Description: (§1) VAP-1 enzyme (SSAO) activity in both human and rat plasma was determined by a radiochemical-enzyme assay using ^14C-benzylamine as artificial substrate. The enzyme suspension prepared from blood plasma was pre-incubated with Compound A in 96-well microplate at room temperature for 30 min. The enzyme suspension was then incubated with ^14C-benzylamine (2×10^−5 mol/l final concentration) in a final volume of 50 μl at 37° C. for 1 hour. The enzyme reaction was terminated by adding 2 mol/l (50 μl) citric acid. The oxidized products were directly extracted into a 200 μl toluene scintillator, and its radioactivity was measured by a scintillation spectrometer. Monoamine oxidase (MAO) and diamine oxidase (DAO, histaminase) activities were also determined by similar method using ^14C-phenylethylamine and ^14C-putrescine as substrate, respectively. Cloned DAO from cDNA libraries was used in human DAO assay. Inhibition activity was expressed as IC50 (μmol/l) value.

Cloned human DAO = target: T3, Cloned human DAO (Homo sapiens, UniProt P19801); assay: Diamine oxidase (DAO, histaminase) activity assay with 14C-putrescine; assay type: biochemical
T3 construct: made in house
T3 sequence (P19801 20-751): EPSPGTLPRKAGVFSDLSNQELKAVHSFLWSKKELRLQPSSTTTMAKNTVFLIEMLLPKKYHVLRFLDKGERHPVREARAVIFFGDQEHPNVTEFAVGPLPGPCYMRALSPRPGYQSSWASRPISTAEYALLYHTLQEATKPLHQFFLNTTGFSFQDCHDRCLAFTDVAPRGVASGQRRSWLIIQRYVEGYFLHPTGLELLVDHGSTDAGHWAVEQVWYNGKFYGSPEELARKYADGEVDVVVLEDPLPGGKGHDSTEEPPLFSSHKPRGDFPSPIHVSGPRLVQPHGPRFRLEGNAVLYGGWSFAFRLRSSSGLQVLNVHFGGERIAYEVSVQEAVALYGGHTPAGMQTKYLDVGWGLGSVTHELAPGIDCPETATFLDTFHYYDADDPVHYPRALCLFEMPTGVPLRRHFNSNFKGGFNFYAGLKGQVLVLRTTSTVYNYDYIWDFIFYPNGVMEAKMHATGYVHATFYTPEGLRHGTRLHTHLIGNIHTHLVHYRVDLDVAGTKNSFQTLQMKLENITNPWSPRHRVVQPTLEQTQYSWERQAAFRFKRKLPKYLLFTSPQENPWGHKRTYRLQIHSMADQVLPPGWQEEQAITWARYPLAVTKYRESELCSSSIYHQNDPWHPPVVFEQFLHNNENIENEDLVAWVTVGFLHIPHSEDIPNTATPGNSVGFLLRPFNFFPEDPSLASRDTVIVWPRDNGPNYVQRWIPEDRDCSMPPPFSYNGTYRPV
Description: as §1

Effect on the increased retinal VAP-1 activity in STZ diabetic rats (in words) (retinal VAP-1; 0.1% solution instilled into the eyes, 6 hours): completely inhibited
Retinal VAP-1 activity (retinal VAP-1; STZ diabetic rats, 0.1%, ocular instillation (10 μl/eye), 6 hours after instillation, mean ± S.E.M., 4 rats): 4.86 ± 0.70 pmol/min/mg protein
Inhibition of the enzyme activity of rat plasma SSAO (in words) (Rat plasma SSAO): completely inhibited
IC50 (Rat plasma SSAO; 30 min pre-incubation, 14C-benzylamine 2×10^−5 mol/l, 37° C., 1 hour, read-out: Inhibitory effect (IC50 values) Rat plasma SSAO): 12 nM
Inhibition of the enzyme activity of cloned DAO (in words) (Cloned human DAO): not
IC50 (Cloned human DAO; 14C-putrescine as substrate, read-out: Inhibitory effect (IC50 values) Cloned human DAO): > 100000 nM
SMILES: CC(=O)Nc1nc(CCc2ccc(NC(=N)N)cc2)cs1 [Compound A, N-{4-[2-(4-{[amino(imino)methyl]amino}phenyl)ethyl]-1,3-thiazol-2-yl}acetamide]
